# In PMC10200060, “Inhibition of DAMP actions in the tumoral microenvironment using lactoferrin-glycyrrhizin conjugate for glioblastoma therapy” (Biomaterials Research, 2023):
# How the values were obtained:
# U87MG [1] = experiment: HMGB1-mediated GBM cell proliferation (CCK-8); type: cell-based, human
# Experimental: (§1) Cell viability was determined using a cell counting kit-8 (CCK-8). U87MG and HUVECs (seeding density: 0.75 × 10^4 cells per well) in 96-well culture plates were treated with GL, Lf, or Lf-GL (25 to 200 × 10^–6 M of GL equivalent concentration) and were incubated for different periods of time (24, 48, and 72 h). After washing with PBS, they were treated with a cell culture medium containing a CCK-8 assay kit (Abbkine) and were incubated at 37 °C and 5% CO2 for 2 h. Then, absorbance was measured at 450 nm in a micro-plate reader (VLBL00D0, Thermo Fisher Scientific). Results were quantified using Sigma Plot (Systat Software, USA). To determine the effect of extracellular HMGB1 in GBM and endothelial cell proliferation, U87MG and HUVECs were seeded in 96-well culture plates (seeding density: 0.75 × 10^4 cells per well) and GL, Lf, or Lf-GL (50 × 10^–6 M GL equivalent concentration) were added to cells with or without HMGB1 protein (U87MG: 0.1 μg mL^−1, and HUVEC: 1 μg mL^−1). Cells were incubated for different periods of time (24, 48, and 72 h).
# U87MG [2] = experiment: Wound-healing scratch (cell migration) assay; type: cell-based, human; settings: HMGB1 0.1 μg mL^−1, 24 h
# Experimental: A wound-healing scratch assay was performed in U87MG to evaluate the effect of GL, Lf and Lf-GL treatment on the cancer cell migration. Cells were seeded in 100 mm-cell culture dishes, 2.0 × 10^6 cells per dish. After the cells were grown to 80% confluence, a scratch was made through the cell monolayer with a 200 μL pipet tip, and it was washed with PBS. Photographs (4 ×) were taken in each of three different scratch areas, and their location on the dish was marked. GL (50 × 10^–6 M), Lf (5 × 10^–6 M) or Lf-GL (1 × 10^–6 M) dissolved in serum-free medium were added to cells with or without HMGB1 protein (0.1 μg mL^−1). Then, cells were incubated for 24 h, and the same areas were re-photographed. Migration distances were examined using the scale bar.
# HUVEC [3] = experiment: HMGB1-mediated HUVEC proliferation (CCK-8); type: cell-based, human
# Experimental: as §1
# HUVEC [4] = experiment: Capillary tube formation assay; type: cell-based, human; settings: HMGB1 (+) control vs HMGB1 (-) control, 24 h
# Experimental: A 24-well plate was coated with of Matrigel® (200 μL, Corning, NY, USA) and was incubated for 30 min in 37℃ incubators. HUVECs were seeded upon a coated Matrigel® 24-well plate (seeding density: 5.0 × 10^4 cells per well). Subsequently, cells were treated with GL (50 × 10^–6 M), Lf (5 × 10^–6 M) or Lf-GL (1 × 10^–6 M) and incubated for 24 h. Then, Calcein AM was added to each well, and the formation of tubes was observed using fluorescence microscopy. These tubes were quantified using Image J.
# ERK phosphorylation = experiment: Western blot of phospho-ERK/ERK in HUVEC; type: cell-based, human; settings: 24 h of treatment with HMGB1
# Experimental: Total cellular protein concentration was determined using a BCA Protein Assay Kit (Pierce, Rockford, IL, USA). Equal amounts of protein from cell lysates were loaded onto a 12% sodium dodecyl sulfate–polyacrylamide gel. After electrophoresis, proteins were transferred to polyvinylidene fluoride membranes blocked with 5% bovine serum albumin for 1 h at room temperature and were diluted 1:500 with the indicated primary antibodies (rabbit anti-ERK1/2, anti-phospho-ERK1 and β-actin antibodies [Cell Signaling Technology, INC.]). Then, the membrane was washed 3 times for 15 min with tris-buffered saline containing Tween 20 and was incubated with HRP-conjugated secondary antibody for 1 h at room temperature. After washing three times for another 15 min with Tris-buffered saline with Tween 20, immune complexes were detected with an enriched chemiluminescent reagent (EZ-Western Lumi Femto, DoGen, South Korea) and staining was quantified by densitometry analysis using an Alpha Imager 2200.
# rat aortic rings = experiment: Aorta ring assay (ex vivo); settings: VEGF 25 ng mL^−1 positive control, 14 days
# Experimental: An aorta ring assay was conducted to confirm the anti-angiogenesis effect of Lf-GL ex vivo. A 48-well plate was coated with of Matrigel® (100 μL) and was incubated for 30 min or more in 37℃ incubators. In the meantime, thoracic aortas of 7-week-old male SD rats were excised. Then, the fat layer and outer membrane were removed, and rings approximately 1 mm in length were prepared. The prepared aortic rings were seeded on a coated Matrigel® of 48-well plate and were covered with Matrigel®. (100 μL) Subsequently, the aortic ring was treated with a control (with or without 25 ng mL^−1 of VEGF) or different concentrations of Lf-GL complex. Medium was changed once every two days. Fourteen days after treatment, optical images of sprouting microvessels were obtained using microscopy magnification (× 40 or × 100). Sprouting microvessel area was quantified using Image J and Sigma Plot.
# Fig. S14. Significant inhibitory effect of Lf-GL in aortic ring angiogenesis. Optical images of vessel regression in aortic ring with Lf-GL treatment. Aortic ring assay was carried out in 48-well plate coated with Matrigel. VEGF-non treated control represents that aortic ring incubated with normal medium. VEGF-treated control represents that aortic ring incubated with 25 ng mL^-1 VEGF-conditioned medium. […]
Substance,"Tumor growth compared to controls not treated with HMGB1 (U87MG [1]; HMGB1 0.1 μg mL^−1, day 1) [%]","Tumor growth compared to controls not treated with HMGB1 (U87MG [1]; HMGB1 0.1 μg mL^−1, day 2) [%]","Tumor growth compared to controls not treated with HMGB1 (U87MG [1]; HMGB1 0.1 μg mL^−1, day 3) [%]",Migration distance more than HMGB1-nontreated cell (U87MG [2]) [μm],"Angiogenic potential (viability) of HUVEC vs control (HUVEC [3]; HMGB1 1 μg mL^−1, day 1) [%]","Angiogenic potential (viability) of HUVEC vs control (HUVEC [3]; HMGB1 1 μg mL^−1, day 2) [%]","Angiogenic potential (viability) of HUVEC vs control (HUVEC [3]; HMGB1 1 μg mL^−1, day 3) [%]",Increase of newly generated micro-vessels (tube number) (HUVEC [4]) [%],Increase of p-ERK level compared to non-treatment (ERK phosphorylation) [times],Increase of outgrowth of endothelial tubules (rat aortic rings) [%]
HMGB1: High-mobility group box-1 protein added to cells as stimulus,110.7 ± 8.2,133.4 ± 1.3,140.7 ± 5.2,121.3 ± 42.8,108.2 ± 7.9,137.9 ± 12.3,169.8 ± 18.1,21.0 ± 2.1,2.3,
VEGF [reference compound],,,,,,,,,,51.1 ± 105.2
